Assay results reported in patent US9957270B2, “Fused pyrimidine-based hydroxamate derivatives” (Agency for Science, Technology and Research, priority 2014, dated 2018).
Where two headings read alike, the source gives them in different places.

Assays:
MV-4-11 cells = experiment: Cell viability/cytotoxicity assay (CytoTox-Glo), MV-4-11 cells; format: cell-based, human; settings: MV-4-11 cells, 48 h, CytoTox-Glo, read-out: cell death potency EC50
Procedure: Cells are cultivated and treated with test compounds in 96-well plates as described in the above Cell Culture and Anti-Proliferative Assays section, the content of dead cells and viable cells are measured using CytoTox-Glo™ Cytotoxicity Assay kit (Promega) per manufacture's protocol. Briefly, CytoTox-Glo™ Cytotoxicity Assay Reagent (48 μL/well) is added to the cells in 96-well plate and the luminescent signals are recorded using a BioTek Synergy H4 reader, then Lysis Reagent (48 μL/well) is added and the luminescent signals derived from both dead and viable cells are recorded. Viability can be calculated by subtracting the luminescent signal resulting from experimental cell death from total luminescent values. Staurosporine is used as positive control.
Fold of cell death of treated vs untreated was monitored at different time points. […] Y Axis is expressed as Mean±SD if applicable.

[1] = Microsomal stability, rat liver microsomes; settings: rat, microsomes, 0.75 h, 5 μM, pH 7.4
Procedure: (§1) GIBIO pooled human liver microsomes (HLM) (Cat # HMMCPL), mouse liver microsomes (MLM) (Cat # BCMCPL), and rat liver microsomes (RLM) (Cat # RTMCPL) were purchased from Life Technologies. […] Samples are incubated for 30, 45, or 60 min. Reaction is terminated with ice-cold acetonitrile 0.3% formic acid. Samples are subsequently centrifuged at 4° C. for 15 min at 20,000×g. The supernatant is analysed by LC-MS.
(§2) Compound in vitro metabolic stability was assayed using liver microsomes (LM) at 0.5 mg/mL of proteins, incubated for 30 min (mouse, MLM), 45 min (rat, RLM), 30 or 45 min (human, HLM). % of remaining parent compound was measured using LC-MS.

[2] = Microsomal stability, mouse liver microsomes; settings: mouse, microsomes, 0.5 h, 5 μM, pH 7.4
Procedure: as §1, §2

A549 = experiment: Anti-proliferative assay (cellular IC50), A549; settings: Homo sapiens, A549, read-out: In Vitro Cellular IC50 A549
Procedure: Cells were cultivated at 37° C., 5% CO2 in media containing 10% FBS and 2 mM glutamine Cells were routinely monitored with MycoAlert™ PLUS Mycoplasma Detection Kit (Lonza Walkersville, Inc.) to make sure they were mycoplasma free. Antibiotics (100 U/mL of penicillin and 100 μg/mL of streptomycin) were only added to the media used for compound dilution and cells in 96-well assay plates.
For a typical screening experiment, cells (100 μL/well) are inoculated into 96 well microtiter plates at plating densities ranging from 2,000 to 30,000 cells/well depending on the doubling time of individual cell lines and assay linearity. […] Suspension cells are treated with test compounds immediately after cell inoculation.
Test compounds are serially diluted (3-fold or 4-fold, 8-concentration) using the same media and added to the plates (15 to 25 μL/well). After 72 h of cultivation, the plates are assayed for cell cytotoxicity/viability by using the following two methods.
Cells in plates are fixed with cold trichloroacetic acid (TCA) (50% w/v in DI water, 1/4 volume of the medium in each well), and incubated at 4° C. for 1 h (adherent cells) or 2 h (suspension cells). The plates are washed 5 times (tap water×3, DI water×2) and air-dried. SRB solution 0.4% (w/v) in 1% acetic acid is added to each well (60 μL/well) and the plates are incubated at room temperature for 30 min, then washed with 1% acetic acid solution 4 times, and air-dried.
The plates are added CellTiter-Glo® Reagent (95 μL/well) and read the luminescence on a BioTek H4 reader per manufacture's protocol.
The raw data are processed using BioTek's Software Gen5 (v2.03.01) to generate inhibitory IC50 values.

[3] = system: histone 3 (Lys 9) and α-tubulin acetylation (HDACs) in PC-3 cells; experiment: Western blot, acetylation of histone 3 (Lys 9) and α-tubulin in PC-3 cells; format: cell-based, human; settings: 24 h, 1 or 10 μM
Procedure: Proteins in cell lysates are resolved by SDS-PAGE and transferred to PVDF and probed with appropriate primary and secondary antibodies. […] Representative Western blot images are shown in FIG. 15 and analyzed results are presented by FIGS. 17 to 20.
PC-3 cells were treated with test compounds at the following concentrations (all contain 0.1% DMSO) for 24 h at 37° C., and then processed according to section of Western Blot Analysis.
The graph represents results from two Western Blot analyses. […] Vehicle DMSO (0.1%) was used as blank control, and its acH3 level was normalized to 1. Y Axis is expressed as Mean±SD if applicable.
Vehicle DMSO (0.1%) as blank control, and its acetylation level was normalized to 1. Y Axis is expressed as Mean±SD if applicable.

[4] = Microsomal stability, human liver microsomes; settings: human, microsomes, 0.75 h, 5 μM, pH 7.4
Procedure: as §1, §2

PC-3 tumors = experiment: Target modulation in PC-3 prostate cancer xenograft (histone H3 acetylation, Western blot); format: in vivo, mouse; settings: BALB/c nude mice, oral, EX1 150 mg/kg, EX78 100 mg/kg
Text: Blood samples, tumors and other tissues were collected for PK/PD studies at the indicated time points (two mice each time point).
The lanes and the concentrations used were as follows: […]

PI3Kβ = biological target: T1, PI3Kβ (Homo sapiens, UniProt P42338); experiment: Kinase enzyme assay (ADP-Glo), PI3Kβ; format: biochemical; settings: read-out: In Vitro Enzymatic IC50 PI3Kβ
T1 construct: purchased SignalChem or BPS P28-10H / 40622
T1 sequence (P42338 whole entry): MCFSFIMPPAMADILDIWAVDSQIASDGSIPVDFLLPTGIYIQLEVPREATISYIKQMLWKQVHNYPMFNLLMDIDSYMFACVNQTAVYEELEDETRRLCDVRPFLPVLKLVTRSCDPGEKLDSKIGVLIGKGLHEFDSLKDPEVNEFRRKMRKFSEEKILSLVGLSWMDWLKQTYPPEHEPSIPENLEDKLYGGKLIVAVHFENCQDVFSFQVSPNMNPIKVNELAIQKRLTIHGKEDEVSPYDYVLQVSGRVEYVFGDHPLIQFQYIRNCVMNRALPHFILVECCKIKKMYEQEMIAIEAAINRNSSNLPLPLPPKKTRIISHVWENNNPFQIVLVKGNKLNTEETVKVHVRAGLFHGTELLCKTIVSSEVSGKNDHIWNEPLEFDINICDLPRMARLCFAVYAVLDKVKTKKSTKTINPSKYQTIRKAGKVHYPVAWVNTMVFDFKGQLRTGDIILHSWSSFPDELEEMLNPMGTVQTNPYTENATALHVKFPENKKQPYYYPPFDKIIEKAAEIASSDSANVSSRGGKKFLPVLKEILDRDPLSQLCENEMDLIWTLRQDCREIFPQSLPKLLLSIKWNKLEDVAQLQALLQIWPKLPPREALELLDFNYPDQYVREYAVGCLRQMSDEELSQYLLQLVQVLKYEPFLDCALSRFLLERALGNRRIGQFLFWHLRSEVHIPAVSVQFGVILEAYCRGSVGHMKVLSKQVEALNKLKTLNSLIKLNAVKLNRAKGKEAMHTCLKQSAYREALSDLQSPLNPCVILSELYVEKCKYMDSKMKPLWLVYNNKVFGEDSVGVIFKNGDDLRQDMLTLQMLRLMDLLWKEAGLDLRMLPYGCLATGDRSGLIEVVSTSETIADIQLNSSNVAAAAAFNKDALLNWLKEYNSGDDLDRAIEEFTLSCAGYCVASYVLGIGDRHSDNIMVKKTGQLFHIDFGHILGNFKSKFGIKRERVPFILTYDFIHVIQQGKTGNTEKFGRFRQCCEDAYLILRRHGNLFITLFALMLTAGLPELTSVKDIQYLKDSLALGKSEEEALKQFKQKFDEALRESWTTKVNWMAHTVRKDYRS
T1 sequence (P27986 whole entry partner): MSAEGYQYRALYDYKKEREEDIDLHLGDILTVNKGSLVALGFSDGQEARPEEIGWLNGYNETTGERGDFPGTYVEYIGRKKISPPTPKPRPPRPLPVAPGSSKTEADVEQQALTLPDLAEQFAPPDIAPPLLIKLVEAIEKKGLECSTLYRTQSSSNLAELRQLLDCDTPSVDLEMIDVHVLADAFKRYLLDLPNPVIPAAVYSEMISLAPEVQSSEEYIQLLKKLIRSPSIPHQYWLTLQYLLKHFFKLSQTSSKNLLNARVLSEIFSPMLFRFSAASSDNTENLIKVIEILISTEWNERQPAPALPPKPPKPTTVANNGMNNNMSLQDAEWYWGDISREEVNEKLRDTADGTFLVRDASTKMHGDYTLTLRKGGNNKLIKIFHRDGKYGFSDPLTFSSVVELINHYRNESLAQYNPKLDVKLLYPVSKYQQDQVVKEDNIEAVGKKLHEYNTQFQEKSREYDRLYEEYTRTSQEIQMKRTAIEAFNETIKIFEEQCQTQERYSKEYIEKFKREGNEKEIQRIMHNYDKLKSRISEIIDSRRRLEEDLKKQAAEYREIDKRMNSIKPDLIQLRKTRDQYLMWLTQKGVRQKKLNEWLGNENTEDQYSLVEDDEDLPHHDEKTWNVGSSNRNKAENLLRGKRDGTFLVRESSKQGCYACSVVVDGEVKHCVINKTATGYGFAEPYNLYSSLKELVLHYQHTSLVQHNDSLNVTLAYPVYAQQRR

Row | Compound | EC50 (MV-4-11 cells) [nM] | Microsomal Stability RLM, % of remaining parent compound [1] [%] | Microsomal Stability MLM, % of remaining parent compound [2] [%] | IC50 (A549) [nM] | Hyperacetylation of histone 3 (Lys 9) and α-tubulin [3] | Microsomal Stability HLM, % of remaining parent compound [4] [%] | Hyperacetylation of H3 in PC-3 tumors (PC-3 tumors) | EC50 (MV-4-11 cells; Homo sapiens, MV4-11) [nM] | IC50 (PI3Kβ) [nM]
1 | CC(C)n1cnc2c(-c3cccc(OCCCC(=O)NO)c3)nc(N3CCOCC3)nc21 [compound 1] | 190 | 70 | 96 | 500 to 2000 | the hyperacetylation effect is dose-dependent | 101 | Hyperacetylation of H3 in PC-3 tumors was confirmed | – | –
2 | CS(=O)(=O)N1CCN(Cc2cc3nc(-c4cccc5[nH]ncc45)nc(N4CCOCC4)c3s2)CC1 [GDC-0941, reference compound] | – | – | – | < 500 | – | – | – | 2750 | –
3 | CCn1c(CN(C)Cc2ccc(C(=O)NO)cc2)nc2c(N3CCOCC3)nc(-c3cnc(N)nc3)nc21 [compound 7] | – | – | – | – | – | – | – | – | 10 to 100
